According to patent publication US20260248774A1, “INHIBITORS OF BACTERIAL TYPE III SECRETION SYSTEM” (MICROBIOTIX, INC., priority 2022, published 2026):

Tests used:
[1] = system: P. aeruginosa T3SS-mediated secretion of ExoS-β-lactamase fusion protein; experiment: Effector-β-lactamase (ExoS-βLA) reporter assay of T3SS-mediated secretion; format: cell-based, Pseudomonas aeruginosa; conditions: read-out: ExoS-BLA IC50; Table 1
Source text: Effector-β-Lactamase (βLA) Reporter Assay of T3SS-Mediated Secretion with an Absorbency Signal.
A gene encoding the exoS promoter/regulatory region and an ExoS-β-lactamase (βLA) fusion protein (comprised of the full length P. aeruginosa T3SS effector ExoS fused in reading frame to the TEM-1 β-lactamase gene lacking secretion signal codons) was constructed by splicing by overlap extension PCR (SOE-PCR) (Choi and Schweizer, 2005, BMC Microbiol., 5:30), sequence confirmed, cloned into miniCTX and introduced into P. aeruginosa strain PAO1 to generate strains MDM1746 and MDM1838 as previously described for strain MDM1710 (Bowlin et al., 2014, Antimicrob Agents Chemother., 58:2211-2220). Secretion of ExoS-β-lactamase fusion protein following EGTA addition to induce the T3SS operons was detected by measuring the hydrolysis of the chromogenic β-lactamase substrate nitrocefin in clear 96-well microplates in a modification of a previously described assay (Lee, et al., 2007, Infect. Immun., 75:1089-98). Cells of strain MDM1746, or negative control MDM1838 (which fails to carry out T3SS secretion due to ΔpscF), were sub-cultured in the morning from overnight growths in LBG into 0.1 ml of LBGE with or without test compounds and grown for 150 min. Nitrocefin (100 μg/mL final) was added, and A490 measurements taken every minute for 15 min in a Victor^3V 1420 Multilabel HTS Counter (PerkinElmer). Slopes were calculated as a relative measure of the quantity of the effector-βLA fusion protein secreted and were absolutely dependent on induction with EGTA, and the presence of a functional pscF gene in the P. aeruginosa cells. Typical signal: background ratios were 6-10.

[2] = system: T3SS-mediated translocation of ExoU by P. aeruginosa strain MDM1561 (PA99U) into CHO cells; experiment: P. aeruginosa ExoU-dependent CHO cell killing assay for T3SS-mediated translocation; format: cell-based, Pseudomonas aeruginosa; conditions: read-out: Translocation EC50; Table 1
Source text: P. aeruginosa ExoU-Dependent CHO Cell Killing.

CYP450 2C9 = CYP450 2C9 (Homo sapiens, UniProt P11712); experiment: Cytochrome P450 inhibition, CYP2C9 (Eurofins Panlabs panel); format: in vitro ADME; conditions: assayed at 10 μM
CYP450 2C9, sequence (P11712 whole entry): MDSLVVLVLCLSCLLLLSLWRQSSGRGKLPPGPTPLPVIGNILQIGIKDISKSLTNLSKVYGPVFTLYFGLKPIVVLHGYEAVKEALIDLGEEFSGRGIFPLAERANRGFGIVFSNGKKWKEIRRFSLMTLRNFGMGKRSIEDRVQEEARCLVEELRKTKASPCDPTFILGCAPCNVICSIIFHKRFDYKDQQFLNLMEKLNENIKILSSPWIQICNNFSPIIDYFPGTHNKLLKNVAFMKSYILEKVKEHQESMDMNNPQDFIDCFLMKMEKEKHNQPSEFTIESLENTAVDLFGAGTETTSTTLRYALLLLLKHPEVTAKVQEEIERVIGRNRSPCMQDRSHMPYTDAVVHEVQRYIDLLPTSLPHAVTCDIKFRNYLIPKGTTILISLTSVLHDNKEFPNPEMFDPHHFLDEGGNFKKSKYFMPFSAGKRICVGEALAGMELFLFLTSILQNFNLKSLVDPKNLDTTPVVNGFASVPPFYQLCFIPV
Description: (§1) Cytochrome P450 Inhibition.
(§2) Assessment of off-target effects of priority compounds. To assess potential off-target effects, we will evaluate prioritized hits validated by in vivo testing in the Eurofins Panlabs HitProfilingScreen+CYP450 assay panel, which is performed by Eurofins as a fee for service. The assay panel of consists of assays for 30 receptors and transporters plus the five major CYP450 enzymes (1A2, 2C19, 2C9, 2D6, 3A4).

CYP450 1A2 = CYP450 1A2 (Homo sapiens, UniProt P05177); experiment: Cytochrome P450 inhibition, CYP1A2 (Eurofins Panlabs panel); format: in vitro ADME; conditions: assayed at 10 μM
CYP450 1A2, sequence (P05177 whole entry): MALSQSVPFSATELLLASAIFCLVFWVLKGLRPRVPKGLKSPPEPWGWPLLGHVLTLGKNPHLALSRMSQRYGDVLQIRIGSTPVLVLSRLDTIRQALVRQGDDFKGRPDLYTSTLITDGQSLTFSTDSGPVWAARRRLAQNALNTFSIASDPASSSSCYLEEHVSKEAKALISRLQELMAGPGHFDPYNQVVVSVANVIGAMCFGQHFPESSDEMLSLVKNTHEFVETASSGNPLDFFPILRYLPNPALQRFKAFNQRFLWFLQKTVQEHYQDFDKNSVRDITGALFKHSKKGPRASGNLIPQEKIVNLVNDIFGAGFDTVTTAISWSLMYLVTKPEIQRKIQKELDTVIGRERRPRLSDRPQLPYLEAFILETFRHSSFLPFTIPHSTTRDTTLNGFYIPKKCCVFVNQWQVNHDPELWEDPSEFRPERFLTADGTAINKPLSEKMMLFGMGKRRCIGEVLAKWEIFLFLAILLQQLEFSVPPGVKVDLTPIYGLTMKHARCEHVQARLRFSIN
Description: as §1, §2

[3] = system: P. aeruginosa T3SS-mediated secretion (exoT-luxCDABE reporter strain MDM852); experiment: Luciferase (exoT-lux) transcriptional reporter assay of T3SS-mediated secretion; format: cell-based, Pseudomonas aeruginosa; conditions: read-out: LUX Sec IC50; Table 1
Source text: Luciferase Transcriptional Reporter Assay of T3SS-Mediated Secretion with a Luminescent Signal.
A transcriptional fusion of the Photorhabdus luminescens lux operon (luxCDABE) to P. aeruginosa PAO1 T3SS effector gene exoT (PA0044) was constructed and used to build strain MDM852 as described previously (Aiello et al., 2010, Antimicrob Agents Chemother, 54:1988-1999). Induction of T3SS operons by Ca^++ depletion due to EGTA addition results in secretion of the T3SS negative regulator ExsE and the production of high levels of T3SS components including the luxCDABE gene products, which results in luminescence that is easily detected by a microplate reader. Inhibition of T3SS-mediated secretion of the negative regulator ExsE by a small molecule inhibitor causes reduced production of luxCDABE gene products and reduced luminescence. For inhibitor IC50 testing, compounds were added to a 96-well microplate in a concentration dilution series. Reporter strain MDM852 was grown at 37° C. in LBG to OD600 ~0.025-0.05, transferred into the microplate (50 uL/well) containing test compounds and EGTA (5 uL of 0.1 M stock solution), which was covered with a translucent gas-permeable seal (Abgene, Inc., Cat. No. AB-0718). […] Plates were incubated at room temperature for 300 min. Then, luminescence was measured in an Envision Multilabel microplate reader (PerkinElmer). The screening window coefficient, Z′-factor (see Zhang, et al., 1999, J. Biomol. Screen., 4:67-73), defined as the ratio of the positive and negative control separation band to the signal dynamic range of the assay, averaged 0.7 for the assay.

[4] = Mammalian cytotoxicity (CC50), MTS conversion; format: cell-based, human; conditions: human, HeLa cells, Table 1; HeLa; read-out: Cytotox-HeLa CC50
Description: Determination of Mammalian Cytotoxicity.
Following incubation for 3 days at 37° C. in VP-SFM, cell viability was measured with the vital tetrazolium salt stain 3-(4,5-dimethylthiazol-2-yl)-2,5 diphenyltetrazolium bromide according to the manufacturer's instructions (Promega, Madison, Wisconsin). Values were determined in triplicate using dilutions of inhibitory compound from 100 μM to 0.2 μM.

CCC(Oc1ccc(Cl)c(Cl)c1Cl)C(=O)NCc1ccc(F)cc1 (stereo not drawn) [MBX-4532]
IC50 [1]: 1 µM | EC50 [2]: 1.7 µM | CYP450, 2C9 (CYP450 2C9): −30 | CYP450, 1A2 (CYP450 1A2): 24 | IC50 [3]: 1.63 µM | CC50 at 3 days [4]: > 200 µM
